Test results: patent US7589062B2, “Two synthetic peptides for treatment and prevention of cancers” (priority 2002, dated 2009)
Where no end group is shown, it is not given here.

Experiments:
SP/2 cells = assay: Cytolytic activity of trypsin digested fragments of AT and KT on SP/2 cells; type: cell-based, mouse; conditions: 10^5 SP/2 cells, 20-1.0 μg/ml, read after three days
Description: Biological Activity of Fragments on SP/2 cells: The cytolytic activity of the trypsin digested fragments of AT and KT were tested on 10^5 SP/2 cells. Dulbecco Modified Eagle's Medium (DMEM) containing 10% newborn calf serum (NBCS), L-glutamine and antibiotics penicillin and streptomycin was used to grow SP/2 cells. Initially, each fraction was tested on cells grown in 48 well plate at 37° C. in a humid CO2 incubator. The serum free medium containing different concentrations such as 20, 10, 5, 2.5 and 1.0 μg/ml of each fragment was tested. Control cells received PBS to serve as controls.
The tests were read after three days. […] Those fragments were considered as the active domains for cancer cell inhibitor. […] The fragment 6 for AT and the fragment 10 for KT were considered as the active domains for cytolytic activity.

BT-20 - cancer of breast = assay: Cytolytic effect on cancer cells in culture, read microscopically; type: cell-based, human
Description: (§1) Biological cytolytic activity of AT and KT at various concentrations ranging from […], 6.25, 12.5 and 25 μg/ml were tested on human cancer cells and SP/2 mouse myeloma cells. The combination AT+KT was 50% by weight of each.

[1] = system: HBL-100 - cancer of breast; assay: as above; type: cell-based, human
Description: as §1

HT-29 - cancer of colon = assay: as above; type: cell-based, human
Description: as §1

[2] = system: Sk-ov-3 - cancer of ovary; assay: as above; type: cell-based, human
Description: as §1

CCL-13 - cancer of mouth = assay: as above; type: cell-based, human
SP/2 - mouse myeloma = assay: as above; type: cell-based
SP/2 cancer cells = assay: Anti cancer activity in vivo: survival of mice injected i.p. with SP/2 cancer cells (ascitic tumors); conditions: Balb/c mice, 2 million SP/2 cells i.p.; 100 μg/mouse for seven consecutive days; PBS control 23 days
Description: Anti Cancer Activity of Synthetic AT and KT In Vivo: Adult Balb/c mice were injected intra-peritoneally with 0.5 ml containing 2 million SP/2 cancer cells. Mice were divided into four groups. Starting from day one of post injection the mice were treated with AT and KT individually and the combination of both at 200 μg/ml concentration. Doses of 0.5 ml containing 100 μg/mouse were given for seven consecutive days and the control mice received 0.5 ml PBS.

[3] = comparison of syn KT with syn AT

| Sequence | Cytolytic activity of trypsin digested fragments, ranking among fragments (SP/2 cells) | % Cytolyic cells BT-20 (BT-20 - cancer of breast; 3.12 μg/ml) [%] | % Cytolyic cells BT-20 (BT-20 - cancer of breast; 6.25 μg/ml) [%] | % Cytolyic cells BT-20 (BT-20 - cancer of breast; 12.5 μg/ml) [%] | % Cytolyic cells BT-20 (BT-20 - cancer of breast; 25 μg/ml) [%] | % Cytolyic cells HBL-100 ([1]; 3.12 μg/ml) [%] | % Cytolyic cells HBL-100 ([1]; 6.25 μg/ml) [%] | % Cytolyic cells HBL-100 ([1]; 12.5 μg/ml) [%] | % Cytolyic cells HBL-100 ([1]; 25 μg/ml) [%] | % Cytolyic cells HT-29 (HT-29 - cancer of colon; 3.12 μg/ml) [%] | % Cytolyic cells HT-29 (HT-29 - cancer of colon; 6.25 μg/ml) [%] | % Cytolyic cells HT-29 (HT-29 - cancer of colon; 12.5 μg/ml) [%] | % Cytolyic cells HT-29 (HT-29 - cancer of colon; 25 μg/ml) [%] | % Cytolyic cells Sk-ov-3 ([2]; 3.12 μg/ml) [%] | % Cytolyic cells Sk-ov-3 ([2]; 6.25 μg/ml) [%] | % Cytolyic cells Sk-ov-3 ([2]; 12.5 μg/ml) [%] | % Cytolyic cells Sk-ov-3 ([2]; 25 μg/ml) [%] | % Cytolyic cells CCL-13 (CCL-13 - cancer of mouth; 3.12 μg/ml) [%] | % Cytolyic cells CCL-13 (CCL-13 - cancer of mouth; 6.25 μg/ml) [%] | % Cytolyic cells CCL-13 (CCL-13 - cancer of mouth; 12.5 μg/ml) [%] | also measured |
| --- | --- | --- | --- | --- | --- | --- | --- | --- | --- | --- | --- | --- | --- | --- | --- | --- | --- | --- | --- | --- | --- |
| PPGNQPDADSN [fragment 10 for KT] | most active | – | – | – | – | – | – | – | – | – | – | – | – | – | – | – | – | – | – | – | – |
| FCRFLLCPSR (cysteine pairing not given here) [Atroporin] | – | 0 | 0 | 50 | 100 | 0 | 0 | 50 | 100 | 0 | 0 | 100 | 100 | 0 | 100 | 100 | 100 | 0 | 50 | 100 | Cytolytic effect compared in similar concentration, Sk-ov-3 ([2]; comparison of syn AT with the other peptide): more cytolytic; % Cytolyic cells CCL-13 (CCL-13 - cancer of mouth; 25 μg/ml): 100%; % Cytolyic cells SP/2 (SP/2 - mouse myeloma; 3.12 μg/ml): 0%; % Cytolyic cells SP/2 (SP/2 - mouse myeloma; 6.25 μg/ml): 0%; % Cytolyic cells SP/2 (SP/2 - mouse myeloma; 12.5 μg/ml): 50%; % Cytolyic cells SP/2 (SP/2 - mouse myeloma; 25 μg/ml): 100%; Survival (incubation period for development of ascitic tumors to cause death) (SP/2 cancer cells): 30 days |
| PPGNQPDADS [Kaotree] | – | 0 | 0 | 75 | 100 | 0 | 50 | 100 | 100 | 0 | 0 | 100 | 100 | 0 | 50 | 100 | 100 | 0 | 0 | 100 | Cytolytic effect compared in similar concentration, BT-20 (BT-20 - cancer of breast; [3]): more cytolytic than AT; Cytolytic effect compared in similar concentration, HBL-100 [1, 3]: more cytolytic than AT; % Cytolyic cells CCL-13 (CCL-13 - cancer of mouth; 25 μg/ml): 100%; % Cytolyic cells SP/2 (SP/2 - mouse myeloma; 3.12 μg/ml): 0%; % Cytolyic cells SP/2 (SP/2 - mouse myeloma; 6.25 μg/ml): 50%; % Cytolyic cells SP/2 (SP/2 - mouse myeloma; 12.5 μg/ml): 100%; % Cytolyic cells SP/2 (SP/2 - mouse myeloma; 25 μg/ml): 100%; Survival (incubation period for development of ascitic tumors to cause death) (SP/2 cancer cells): 37 days |
| FCRFLLCPSRSLL (cysteine pairing not given here) [fragment 6 for AT] | most active | – | – | – | – | – | – | – | – | – | – | – | – | – | – | – | – | – | – | – | – |
